Source: ChEMBL document CHEMBL1144759, “Neuroprotective limonoids of root bark of Dictamnus dasycarpus” (J Nat Prod, 2008)
pEC50: −log10 of the molar value. Counter-ions that a name gives are not always drawn.

Legend:
[1] = Neuroprotective activity against rat cortical cells assessed as glutamate-induced neurotoxicity by MTT assay; format: functional, cell-based
[2] = Neuroprotective activity against rat cortical cells at 0.1 uM assessed as glutamate-induced neurotoxicity by MTT assay; format: functional
[3] = Neuroprotective activity against rat cortical cells at 1.0 uM assessed as glutamate-induced neurotoxicity by MTT assay; format: functional
[4] = Neuroprotective activity against rat cortical cells at 10.0 uM assessed as glutamate-induced neurotoxicity by MTT assay; format: functional

Compound | pEC50 [1] | Emax at 0.1 µM [2] [%] | Emax at 1 µM [3] [%] | Emax at 10 µM [4] [%]
CC1=C2C(=O)O[C@@H](c3ccoc3)[C@]2(C)CC[C@@H]1O | 7.01 | 51.1 | – | –
CC1=C2C(=O)O[C@@H](c3ccoc3)[C@]2(C)CC[C@H]1O[C@@H]1O[C@H](CO)[C@@H](O)[C@H](O)[C@H]1O | 6.15 | – | 53 | –
CC1=CCC[C@@]2(C)[C@H](c3ccoc3)OC(=O)[C@H]3O[C@]132 [CALODENDROLIDE] | 7.72 | 71.9 | – | –
CC1=C2[C@@H](O)C(=O)O[C@@H](c3ccoc3)[C@]2(C)CC[C@@H]1O [DICTAMDIOL A] | 7.17 | 68.1 | – | –
CC1=C2[C@H](O)C(=O)O[C@@H](c3ccoc3)[C@]2(C)CC[C@H]1O [DICTAMDIOL B] | – | 45.6 | – | –
CC1=C2[C@H](O)C(=O)O[C@@H](c3ccoc3)[C@]2(C)CC[C@@H]1O [DICTAMDIOL] | – | 35.3 | – | –
C[C@H]1C2=C(O)C(=O)O[C@@H](c3ccoc3)[C@]2(C)CC[C@@H]1O[C@@H]1O[C@H](CO)[C@@H](O)[C@H](O)[C@H]1O [DICTAMNUSINE] | 7.38 | 62.1 | – | –
C[C@]12N[C@H](Cc3ccccc31)c1ccccc12 [DIZOCILPINE MALEATE] | 6.32 | – | – | 83.8
CC1=C2C(=O)O[C@@H](c3ccoc3)[C@]2(C)CCC1 [FRAXINELLONE] | 7.66 | 70.4 | – | –
CC1=C2C(=O)O[C@@H](c3ccoc3)[C@]2(C)CCC1=O [FRAXINELLONONE] | – | – | 47.6 | –
CC1(C)O[C@H]2CC(=O)OC[C@]23[C@H]2CC[C@@]4(C)[C@H](c5ccoc5)OC(=O)[C@H]5O[C@]54[C@]2(C)C(=O)C[C@@H]13 [LIMONIN] | 7.74 | 75.9 | – | –
CC1(C)OC(=O)C=C[C@]2(C)[C@H]3CC[C@@]4(C)[C@H](c5ccoc5)OC(=O)[C@H]5O[C@]54[C@]3(C)C(=O)C[C@@H]12 [OBACUNONE] | 7.41 | 63.9 | – | –
CC1(C)O[C@H]2CC(=O)OC[C@]23[C@H]2CC[C@@]4(C)[C@H](c5ccoc5)OC(=O)[C@H]5O[C@]54[C@]2(C)[C@@H](O)C(=O)[C@@H]13 [RUTAEVIN] | 5.51 | – | – | 65.4
